Where a SMILES comes first, the peptide text is derived from it. Bridges are numbered along the chain shown (N, C = ends).
Experiments:
[1] = test system: motor performance of mice; experiment: Motor assessment, Parallel Rod Floor Test; type: in vivo; conditions: i.p.; Pnc1a 3 mg/kg, PF-04856254 30 mg/kg, CNV1014802 30 mg/kg, GpTx-1 0.1 mg/kg, gabapentin 100 mg/kg
Protocol: (§1) For behavioural assessment adult male C57BL/6J mice aged 6-8 weeks were used. Animals were housed in groups of 3 or 4 per cage, under 12 h light-dark cycles and had standard rodent chow and water ad libitum.
Motor performance was assessed using the Parallel Rod Floor Test and analyzed using ANY-Maze software (Stoelting Co., version 4.70, Wood Dale, Ill., USA). […] Mice were then placed in the Parallel Rod Floor Test apparatus, and the distance travelled (m) and number of foot slips were recorded over 1 min using the ANY-Maze software. The ataxia index was calculated by dividing the number of foot slips by the distance travelled (m).

hNav1.5 = molecular target: T1, hNav1.5 (Homo sapiens, UniProt Q14524); experiment: FLIPR membrane potential assay, hNav1.5; type: cell-based
T1 construct: host or cells: HEK293
In short: (§2)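 HEK293 cells stably expressing each human Nav subtype were plated 48 h ahead and loaded with red membrane potential dye for 30 min at 37° C.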

hNav1.6 = molecular target: T2, hNav1.6 (Homo sapiens, UniProt Q9UQD0); experiment: FLIPR membrane potential assay, hNav1.6; type: cell-based
T2 construct: host or cells: HEK293
In short: as §2

hNav1.4 = molecular target: T3, hNav1.4 (Homo sapiens, UniProt P35499); experiment: FLIPR membrane potential assay, hNav1.4; type: cell-based
T3 construct: host or cells: HEK293
In short: as §2

hNav1.7 [2] = molecular target: T4, hNav1.7 (Homo sapiens, UniProt Q15858); experiment: Automated patch clamping (QPatch-16), hNav1.7; type: cell-based; conditions: 100 nM
T4 construct: host or cells: HEK293
Protocol: HEK293 cells stably expressing hNav1.1-1.7 or CHO cells stably expressing hNav1.8 (as described in Example 3 above) were cultured in a T-175 flask in selection antibiotic-free media at 37° C. Cells were grown to 70-80% confluence and harvested using Detachin (Bio-Scientific, NSW, Australia) at 37° C. for 2 min. Dissociated cells were then resuspended in Ex-Cell ACF CHO Medium with HEPES (25 mM; Sigma-Aldrich Co.) and allowed to recover on the QStirrer for 30 min.
The extracellular solution contained in mM: NaCl 145, KCl 4, CaCl2 2, MgCl2 1, HEPES 10 and glucose 10. The pH was adjusted to 7.4 with NaOH and osmolarity was adjusted with sucrose to 305 mOsm. The intracellular solution contained in mM: CsF 140, ethylene glycol tetraacetic acid (EGTA)/CsOH 1/5, HEPES 10 and NaCl 10. The pH was adjusted to 7.3 with CsOH and osmolarity adjusted with sucrose to 320 mOsm.
Whole-cell patch-clamp experiments were performed on a QPatch-16 automated electrophysiology platform (Sophion Bioscience, Ballerup, Denmark) using 16-channel planar patch chip plates (QPlates; Sophion Bioscience) with a patch hole diameter of 1 μm and resistance of 2±0.02 MΩ with the following parameters: positioning pressure −60 mbar, minimum seal resistance 0.1 GΩ, holding potential −100 mV, holding pressure −20 mbar.
Whole-cell currents were filtered at 5 kHz and acquired at 25 kHz.
The current-voltage (IV) curve was constructed with a holding potential of −80 mV followed by a pre-pulse of −100 mV for 50 ms and a series of 50 ms step pulses that ranged from −80 to 50 mV in 5 mV increments before returning to a holding potential of −80 mV. Voltage-dependence of activation was determined as normalized Nav conductance (GNa) using: GNa=INa/(Vmemb−Vrev), where Vmemb is the membrane potential and Vrev is the reversal potential for each cell. The voltage of activation data was fitted to a Boltzmann sigmoidal curve using GraphPad Prism, version 6.0.

hNav1.2 = molecular target: T5, hNav1.2 (Homo sapiens, UniProt Q99250); experiment: FLIPR membrane potential assay, hNav1.2; type: cell-based
T5 construct: host or cells: HEK293
In short: as §2

hNav1.1 = molecular target: T6, hNav1.1 (Homo sapiens, UniProt P35498); experiment: FLIPR membrane potential assay, hNav1.1; type: cell-based
T6 construct: host or cells: HEK293
In short: as §2

hNav1.7 [3] = molecular target: T4, hNav1.7; experiment: FLIPR membrane potential assay, hNav1.7; type: cell-based
In short: as §2

hNav1.8 = molecular target: T7, hNav1.8 (Homo sapiens, UniProt Q9Y5Y9); experiment: FLIPR membrane potential assay, hNav1.8; type: cell-based
T7 construct: host or cells: HEK293
In short: as §2

hNav1.3 = molecular target: T8, hNav1.3 (Homo sapiens, UniProt Q9NY46); experiment: FLIPR membrane potential assay, hNav1.3; type: cell-based
T8 construct: host or cells: HEK293
In short: as §2

[4] = test system: carrageenan-induced mechanical and thermal allodynia in mice; experiment: Carrageenan model; type: in vivo; conditions: naloxone methiodide 100 mg/kg i.p.
Protocol: as §1
λ-Carrageenan (Sigma-Aldrich Co.) was dissolved in phosphate buffered saline to a 1% w/v solution (prepared 24 h prior) and administered by intraplantar injection to the left hind paw of mice in a volume of 40 μL under light isoflurane (3%) anaesthesia. Behavioural assessment (mechanical and thermal thresholds) was performed 3 hours after injection of carrageenan.
Mechanical allodynia was assessed using an electronic von Frey apparatus (MouseMet Electronic von Frey, TopCat Metrology Ltd, United Kingdom). […] The force that elicited paw withdrawal was calculated using the MouseMet Software. The paw withdrawal force (PWF) was determined from the average of three tests, separated by at least 2 min.
Mice were habituated in individual mouse runs for at least 5 min prior to testing. […] Removal of the paw and/or the probe by the investigator terminates heating, and triggers display of the withdrawal temperature on the readout, without the need for the investigator to manually stop the heating or record the temperature, until the reset button is pressed. The temperature that elicited a paw withdrawal, known as the paw withdrawal temperature (PWT), was determined by a single test.

[5] = test system: OD1-induced spontaneous pain behaviours in mice; experiment: OD1 model of spontaneous pain behaviours; type: in vivo; conditions: intraplantar 1 μM, co-injected with OD1
Protocol: as §1
OD1 was diluted in phosphate-buffered saline/0.1% BSA (300 nM) and administered by shallow subcutaneous (intraplantar) injection to the left hind paw of mice in a volume of 40 μL under light isoflurane (3%) anesthesia. Mice were then placed individually into polyvinyl boxes (10×10×10 cm), and spontaneous pain behavior (licks and flinches) was counted by an investigator unaware of the treatments received from video recordings for 10 min post-injection.

T4 sequence (Q15858 whole entry): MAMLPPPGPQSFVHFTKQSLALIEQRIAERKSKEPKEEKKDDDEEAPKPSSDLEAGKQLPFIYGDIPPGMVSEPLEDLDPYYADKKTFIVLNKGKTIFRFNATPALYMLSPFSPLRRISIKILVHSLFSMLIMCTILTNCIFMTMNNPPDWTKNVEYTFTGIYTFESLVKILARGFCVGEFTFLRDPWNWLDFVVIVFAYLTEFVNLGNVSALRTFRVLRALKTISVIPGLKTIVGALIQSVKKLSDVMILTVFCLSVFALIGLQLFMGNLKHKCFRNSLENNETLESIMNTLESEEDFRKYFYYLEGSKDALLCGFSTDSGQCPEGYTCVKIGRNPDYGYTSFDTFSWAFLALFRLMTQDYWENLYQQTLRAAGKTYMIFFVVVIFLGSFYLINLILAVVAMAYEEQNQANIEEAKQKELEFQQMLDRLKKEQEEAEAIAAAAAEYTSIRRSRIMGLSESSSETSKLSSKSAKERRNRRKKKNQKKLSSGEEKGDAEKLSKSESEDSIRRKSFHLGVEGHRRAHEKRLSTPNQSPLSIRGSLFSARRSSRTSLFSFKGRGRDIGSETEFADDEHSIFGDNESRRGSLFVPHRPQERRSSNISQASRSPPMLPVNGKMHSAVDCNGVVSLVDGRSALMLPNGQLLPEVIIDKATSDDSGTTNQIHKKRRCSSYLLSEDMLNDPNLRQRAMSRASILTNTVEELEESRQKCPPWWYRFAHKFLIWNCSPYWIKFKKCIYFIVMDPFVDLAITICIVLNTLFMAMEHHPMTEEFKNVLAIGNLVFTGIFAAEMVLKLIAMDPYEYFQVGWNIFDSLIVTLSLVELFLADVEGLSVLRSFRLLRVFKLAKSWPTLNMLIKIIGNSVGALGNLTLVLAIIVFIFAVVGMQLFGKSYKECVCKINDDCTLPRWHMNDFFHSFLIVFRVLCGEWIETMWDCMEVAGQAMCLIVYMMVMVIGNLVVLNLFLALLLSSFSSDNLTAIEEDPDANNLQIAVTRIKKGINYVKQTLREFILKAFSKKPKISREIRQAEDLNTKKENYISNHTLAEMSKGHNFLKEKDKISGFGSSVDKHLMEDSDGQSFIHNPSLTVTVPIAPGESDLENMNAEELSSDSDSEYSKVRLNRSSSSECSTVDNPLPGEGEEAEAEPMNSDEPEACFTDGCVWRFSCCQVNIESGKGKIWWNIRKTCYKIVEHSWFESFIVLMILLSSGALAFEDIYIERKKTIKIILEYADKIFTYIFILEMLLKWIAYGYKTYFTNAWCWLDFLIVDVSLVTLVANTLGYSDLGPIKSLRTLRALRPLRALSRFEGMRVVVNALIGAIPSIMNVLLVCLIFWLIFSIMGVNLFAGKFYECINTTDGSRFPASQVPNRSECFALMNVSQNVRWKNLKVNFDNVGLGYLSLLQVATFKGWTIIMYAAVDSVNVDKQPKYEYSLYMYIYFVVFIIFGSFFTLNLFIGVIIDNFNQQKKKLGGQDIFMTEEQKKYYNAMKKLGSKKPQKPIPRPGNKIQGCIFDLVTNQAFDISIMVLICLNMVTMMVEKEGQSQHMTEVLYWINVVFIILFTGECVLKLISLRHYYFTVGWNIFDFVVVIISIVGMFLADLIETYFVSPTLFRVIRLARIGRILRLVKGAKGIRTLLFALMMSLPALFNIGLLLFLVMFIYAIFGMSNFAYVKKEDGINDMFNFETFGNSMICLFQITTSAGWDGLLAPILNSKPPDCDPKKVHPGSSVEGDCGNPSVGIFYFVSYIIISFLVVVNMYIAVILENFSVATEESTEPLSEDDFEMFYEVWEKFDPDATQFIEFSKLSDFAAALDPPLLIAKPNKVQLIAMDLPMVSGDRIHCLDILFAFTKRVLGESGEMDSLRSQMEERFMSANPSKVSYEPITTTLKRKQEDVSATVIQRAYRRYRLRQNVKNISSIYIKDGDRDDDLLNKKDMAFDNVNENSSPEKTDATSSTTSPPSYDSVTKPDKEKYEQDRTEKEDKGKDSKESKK
T1 sequence (Q14524 whole entry): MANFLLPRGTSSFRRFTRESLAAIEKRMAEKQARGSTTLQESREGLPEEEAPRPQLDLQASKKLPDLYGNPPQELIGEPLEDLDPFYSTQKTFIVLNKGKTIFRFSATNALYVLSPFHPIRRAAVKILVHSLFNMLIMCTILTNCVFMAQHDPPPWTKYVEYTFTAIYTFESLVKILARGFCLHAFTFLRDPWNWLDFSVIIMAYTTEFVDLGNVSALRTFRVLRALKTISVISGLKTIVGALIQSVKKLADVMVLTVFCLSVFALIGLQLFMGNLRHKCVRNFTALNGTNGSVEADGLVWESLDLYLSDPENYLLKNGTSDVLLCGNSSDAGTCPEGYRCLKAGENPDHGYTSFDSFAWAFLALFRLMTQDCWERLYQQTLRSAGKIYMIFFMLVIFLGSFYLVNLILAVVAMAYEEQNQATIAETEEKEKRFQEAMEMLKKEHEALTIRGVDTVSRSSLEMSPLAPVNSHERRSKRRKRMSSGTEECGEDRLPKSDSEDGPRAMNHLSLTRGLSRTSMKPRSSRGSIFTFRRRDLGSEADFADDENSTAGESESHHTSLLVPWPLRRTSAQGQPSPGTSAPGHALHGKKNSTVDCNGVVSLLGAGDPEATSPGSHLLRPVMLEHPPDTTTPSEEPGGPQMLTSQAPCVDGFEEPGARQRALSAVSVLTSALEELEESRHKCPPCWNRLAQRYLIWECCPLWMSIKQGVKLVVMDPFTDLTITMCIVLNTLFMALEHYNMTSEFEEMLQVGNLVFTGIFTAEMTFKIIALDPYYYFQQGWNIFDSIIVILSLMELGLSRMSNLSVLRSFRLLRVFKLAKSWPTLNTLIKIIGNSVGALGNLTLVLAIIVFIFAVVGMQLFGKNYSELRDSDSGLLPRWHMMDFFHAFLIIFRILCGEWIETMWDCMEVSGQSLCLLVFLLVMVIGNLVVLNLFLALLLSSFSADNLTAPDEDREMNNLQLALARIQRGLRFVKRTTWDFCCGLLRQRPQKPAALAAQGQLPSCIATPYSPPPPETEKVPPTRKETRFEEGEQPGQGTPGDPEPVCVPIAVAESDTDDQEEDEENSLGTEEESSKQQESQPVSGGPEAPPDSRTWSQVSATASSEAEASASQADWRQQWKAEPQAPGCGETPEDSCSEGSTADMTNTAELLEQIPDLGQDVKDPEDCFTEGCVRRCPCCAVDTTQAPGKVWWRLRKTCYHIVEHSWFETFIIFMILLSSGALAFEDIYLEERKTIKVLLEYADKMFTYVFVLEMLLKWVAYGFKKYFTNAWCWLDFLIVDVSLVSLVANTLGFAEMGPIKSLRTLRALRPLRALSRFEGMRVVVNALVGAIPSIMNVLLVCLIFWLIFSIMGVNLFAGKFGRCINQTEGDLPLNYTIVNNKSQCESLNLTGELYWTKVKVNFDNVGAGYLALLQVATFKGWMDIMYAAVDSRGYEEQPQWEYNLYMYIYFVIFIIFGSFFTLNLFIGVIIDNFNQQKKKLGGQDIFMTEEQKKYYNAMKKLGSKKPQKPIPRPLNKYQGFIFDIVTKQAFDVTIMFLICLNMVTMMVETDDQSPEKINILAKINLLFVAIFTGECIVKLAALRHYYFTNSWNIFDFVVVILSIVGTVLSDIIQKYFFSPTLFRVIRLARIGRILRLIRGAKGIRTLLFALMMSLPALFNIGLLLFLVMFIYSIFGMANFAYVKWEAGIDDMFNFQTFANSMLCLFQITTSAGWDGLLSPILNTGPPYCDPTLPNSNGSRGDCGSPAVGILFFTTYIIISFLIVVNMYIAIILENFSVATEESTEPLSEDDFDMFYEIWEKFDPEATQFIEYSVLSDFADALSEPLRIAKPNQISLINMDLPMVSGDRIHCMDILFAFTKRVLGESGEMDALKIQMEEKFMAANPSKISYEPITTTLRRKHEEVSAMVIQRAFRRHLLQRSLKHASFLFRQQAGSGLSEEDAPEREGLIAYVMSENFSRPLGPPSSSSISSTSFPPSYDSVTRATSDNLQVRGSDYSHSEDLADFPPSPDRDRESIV

**Q.** For `NC(=O)[C@@H]1CC[C@H](c2ccc(OCc3ccccc3F)cc2)N1` [CNV1014802, raxatrigine], which “ataxia index (foot slips per metre travelled) compared to vehicle control” value [1] is on record?
**A.** no significant effect

**Q.** Which results are given for `CSCC[C@@H]1NC(=O)[C@H](Cc2ccc(O)cc2)NC(=O)[C@H](CCCNC(=N)N)NC(=O)[C@@H](NC(=O)[C@@H](N)CC(=O)O)CSSC[C@@H]2NC(=O)[C@@H]3CSSC[C@@H](C(=O)N[C@@H](C)C(=O)N[C@@H](Cc4c[nH]c5ccccc45)C(=O)N[C@@H](CC(=O)O)C(=O)N[C@@H](Cc4ccccc4)C(=O)N[C@H](C(=O)N[C@@H](Cc4ccccc4)C(=O)N[C@H](C(=O)O)[C@@H](C)O)[C@@H](C)O)NC(=O)[C@H](Cc4ccc(O)cc4)NC(=O)[C@H](CCCCN)NC(=O)[C@H](CCSC)NC(=O)[C@H](CC(=O)O)NC(=O)[C@H](CCCNC(=N)N)NC(=O)[C@H](CCCCN)NC(=O)[C@H](CSSC[C@H](NC(=O)[C@H](CC(=O)O)NC(=O)CNC(=O)[C@H](Cc4ccccc4)NC1=O)C(=O)N[C@@H](CCC(=O)O)C(=O)N[C@@H](CCCCN)C(=O)N[C@@H](CC(=O)O)C(=O)N[C@@H](CCC(=O)O)C(=O)N[C@@H](CC(=O)O)C(=O)N3)NC(=O)CNC(=O)[C@H](CC(C)C)NC(=O)[C@H](Cc1c[nH]cn1)NC(=O)[C@H](CCCCN)NC2=O` [[K24D]Pnc1a] (H-DCRYMFGDCEKDEDCCKHLGCKRDMKYCAWDFTFT-OH; disulfide 2-16, 9-21, 15-28)?
**A.** IC50 (hNav1.5): > 30 µM; Selectivity for Nav1.7, Nav subtype 1.5 (hNav1.5; membrane potential assay): 59; IC50 (hNav1.6): > 30 µM; Selectivity for Nav1.7, Nav subtype 1.6 (hNav1.6; membrane potential assay): 14; IC50 (hNav1.4): 12 µM; Selectivity for Nav1.7, Nav subtype 1.4 (hNav1.4; membrane potential assay): 24; effect on the current voltage (IV) relationship of Nav1.7 (hNav1.7 [2]): minimal effect; IC50 (hNav1.2): 38 µM; Selectivity for Nav1.7, Nav subtype 1.2 (hNav1.2; membrane potential assay): 7; IC50 (hNav1.1): 32 µM; Selectivity for Nav1.7, Nav subtype 1.1 (hNav1.1; membrane potential assay): 63; IC50 (hNav1.7 [3]): 0.51 µM; Selectivity for Nav1.7, Nav subtype 1.7 (hNav1.7 [3]; membrane potential assay, reference subtype): 1; IC50 (hNav1.8): > 30 µM; Selectivity for Nav1.7, Nav subtype 1.8 (hNav1.8; membrane potential assay): 40; IC50 (hNav1.3): 20 µM; Selectivity for Nav1.7, Nav subtype 1.3 (hNav1.3; membrane potential assay): 39

**Q.** How did the “ataxia index (foot slips per metre travelled) compared to vehicle control” value [1] turn out when `NCC1(CC(=O)O)CCCCC1` [gabapentin] was run?
**A.** significant increase

**Q.** What does the source list for `C=CC[N+]1(C)CC[C@]23c4c5ccc(O)c4O[C@H]2C(=O)CC[C@@]3(O)[C@H]1C5` (stereo partly shown) [naloxone methiodide]?
**A.** analgesic effects of the Pnc1a/oxycodone combination on mechanical allodynia [4]: reversed; analgesic effects of the Pnc1a/oxycodone combination on thermal allodynia [4]: reversed

**Q.** “ProTxII: Nav1.7 selective inhibitor (Peptides International) [reference compound]” was tested. Which “OD1-induced pain behaviours, compared to an equivalent concentration of Pnc1a” value [5] did it give?
**A.** only partially reversed

From patent publication US10662229B2, “Spider venom peptides and methods of use for modulating sodium channels” (priority 2016, dated 2020)
